According to patent US10220046B2, “Compositions and methods for disease treatment using nanoparticle delivered compounds” (THE REGENTS OF THE UNIVERSITY OF MICHIGAN, priority 2014, dated 2019):
Non-standard residues stand in square brackets, D forms with d. No end group written: not given here.

Assays:
[1] = system: NCI-H295R cells; test: Colony formation assay; format: cell-based, human; details: clonogenic assay, 24 h treatment, with 50 μg/ml sHDL
Procedure: (§1) NCI-H295R and SW13 cells were plated in 6-well plates and allowed to attach. […] The medium was changed and surviving cells allowed to grow colonies of 50 cells or more for two weeks, then washed, fixed, and stained with coomassie blue and counted. Total colony numbers were normalized to untreated controls.

[2] = system: SW13 cells; test: Colony formation assay; format: cell-based, human; details: clonogenic assay, 24 h treatment, with 50 μg/ml sHDL
Procedure: as §1

[3] = system: NCI-H295R cells; test: Apoptosis by flow cytometry (annexin V-FITC/propidium iodide); format: cell-based, human; details: combination with sHDL vs. drug alone, 24 h
Procedure: (§2) Following treatment, cells were washed, re-suspended in annexin binding buffer and stained using annexin V-FITC/Propidium iodide as previously described (Subramanian et al., World J. Surg., 2014, 38(6): 1343-52). Induction of apoptosis was measured using the CyAn ADP Analyzer (Beckman Coulter, Inc., Indianapolis, Ind.).

[4] = system: SW13 cells; test: as above; format: cell-based, human; details: combined with sHDL vs. drug alone, 24 h
Procedure: as §2

[5] = system: NCI-H295R cells; test: Mitochondrial membrane potential (TMRE); format: cell-based, human; details: combination with sHDL vs. drug alone, 24 h
Procedure: (§3) SW13 and NCI-H295R were seeded in a 96 well black wall plate. Once attached, they were treated with the drugs as described above. 24 h post drug treatment, 500 nM tetramethylrhodamine, ethyl ester (TMRE) was added and the cells were incubated for 20 minutes at 37° C. and the fluorescent signal was measured after washing using a microplate reader (excitation=549, emission=575). 100 nM FCCP (carbonyl cyanide 4-(trifluoromethoxy)phenylhydrazone) was added to cells 10 minutes before the addition of TMRE as a negative control.

[6] = system: SW13 cells; test: Mitochondrial membrane potential (TMRE); format: cell-based, human; details: combination with sHDL vs. drug alone, 24 h
Procedure: as §3

[7] = system: cortisol production of NCI-H295R cells; test: Cortisol immunoassay of culture supernatant; format: cell-based, human; details: 24 h
Procedure: The cortisol immunoassay (Alpco, Salem, N.H.) was used to quantitate cortisol levels in the culture supernatant of steroid producing NCI-H295R cells after treatment with drug combinations (same as in clonogic assay) for 24 h per the manufacturer instructions. Briefly, culture supernatant after treatment was added to the antibody coated-plates containing assay buffer (45 minutes at 25° C.). After washing, tetra methyl benzidine (TMB) substrate was incubated at RT and absorbance measured using a Synergy Neo reader (BioTek, Winooski, Vt.).

[8] = system: genes involved in steroidogenesis in NCI-H295R cells; test: Real time RT-PCR of genes involved in steroidogenesis; format: cell-based, human; details: combination with sHDL compared to monotherapy, 24 h; decreased for P and M, increased for E
Procedure: RNA from the NCI-H295R cells after drug treatment for 24 h was prepared using Qiagen RNA isolation kit (Qiagen Sciences, Valencia, Calif.). Approximately 500 ng of RNA was reverse transcribed using superscript RT kit from Life Technologies (Grand Island, N.Y.). qPCR was performed in a step-one RT PCR machine using the gene specific primer sets (Table 3) as published (11). Relative gene expression levels were calculated after normalization with internal control.

[9] = system: NCI-H295R MCAs; test: Three dimensional multicellular aggregate (MCA) treatment; format: cell-based, human; details: in combination with 50 μg/ml sHDL, 24 h
Text: (§4) To evaluate the translational potential of the combination therapy, three-dimensional multicellular aggregates were developed to mimic the in vivo tumor model as described by Jain et al. (Jain et al., Endocrine-related cancer. 2013 June; 20(3):361-70, herein incorporated by reference in its entirety). […] Untreated, sHDL alone treated cells served as controls. The MCAs were photographed before and after treatment and the MCAs were quantified by Image J software (NIH) as described by Jain et al.

[10] = system: SW13 MCAs; test: as above; format: cell-based, human; details: in combination with 50 μg/ml sHDL, 24 h
Text: as §4

[11] = sHDL nanoparticle formation and loading with additional anticancer agents; format: physicochemical; details: agent in place of WGA-TA
Text: The composition as described in Example was made with various anticancer agents in place of WGA-TA.

[12] = system: SW13 and NCI-H295R cells; test: Cell viability assay (CellTiter-Glo) and combination index; format: cell-based, human
Procedure: Serial dilutions were made from the starting concentrations and viability of cells was then measured based on quantification of the ATP levels after treatment with CellTiter-Glo luminescent assay reagent as per the manufacturer's instruction (Promega, Madison, Wis.) with luminescence quantified using a BioTek Synergy Neo plate reader (BioTek, Winooski, Vt.). […] For all cell-based experiments, the experimental control group was defined, unless stated otherwise, as untreated cells or cells treated with single drug alone (when comparing to combination regimens).

[13] = Metabolite analysis in mouse plasma by LC-MS/MS; format: in vivo, CD-1 white mice; details: IV 4 mg/kg WGA-TA in dextran formulation, 30 minutes after administration
Procedure: CD-1 white mice were given an IV dosage of 4 mg/kg WGA-TA in dextran formulation. Samples of blood was collected at different time points in heparin treated tubes and the plasma collected after centrifugation at 13,000 rpm for 10 min and was frozen at −80° C. for later analysis. For the evaluation of metabolites, 300 uL of ice-cold acetonitrile was added to 100 uL of the mouse plasma and then centrifuged at 4° C. in 15000 rpm for 10 minutes. The top supernatant was dried under a stream of nitrogen gas. The residue was finally reconstituted in a 100 uL solution of 20% acetonitrile (80% water). Blank plasma needed for the control was prepared from untreated CD-1 white mice blood as above. As a negative control, blank plasma spiked with WGA-TA before extraction was used. The LC-MS/MS analysis was conducted using a Shimadzu HPLC system coupled with an API 4500 mass spectrometer (Applied Biosystems, MDS Sciex Toronto, Canada), equipped with an API electrospray ionization (ESI) source. Enhanced MS, product ion-scan, and MRM scan were used as a survey scan to identify metabolites of WGA-TA. Information dependent acquisition (IDA) was used to collect fragmentation of metabolite candidates or single experiment of enhanced product ion scan was applied to acquire fragmentation of metabolites after running survey scan. […]

[14] = target: T1, LCAT (Homo sapiens, UniProt P04180); details: cited from earlier work
T1 sequence (P04180 25-440): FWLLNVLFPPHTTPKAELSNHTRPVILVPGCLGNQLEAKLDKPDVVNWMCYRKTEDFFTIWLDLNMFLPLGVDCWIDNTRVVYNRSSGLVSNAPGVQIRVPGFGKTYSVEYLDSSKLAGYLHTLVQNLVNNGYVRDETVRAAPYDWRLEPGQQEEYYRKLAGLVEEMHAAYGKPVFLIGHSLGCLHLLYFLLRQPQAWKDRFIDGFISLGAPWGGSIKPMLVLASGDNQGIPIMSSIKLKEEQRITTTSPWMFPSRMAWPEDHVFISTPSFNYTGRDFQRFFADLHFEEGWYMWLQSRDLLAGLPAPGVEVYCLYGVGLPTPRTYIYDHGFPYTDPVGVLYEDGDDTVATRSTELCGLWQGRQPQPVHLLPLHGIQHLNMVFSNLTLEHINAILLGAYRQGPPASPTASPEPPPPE

[15] = system: adrenocortical carcinoma (ACC); details: advanced ACC patients; cited from earlier work

Compound: COc1cc([C@@H]2c3cc4c(cc3[C@@H](O[C@@H]3O[C@@H]5CO[C@@H](C)O[C@H]5[C@H](O)[C@H]3O)[C@H]3COC(=O)[C@H]23)OCO4)cc(OC)c1O [etoposide]
- higher reduction in viability, combination compared to single drug alone [1]: 44.6%
- higher reduction in viability, combination compared to single drug alone [2]: 39.52%
- increase in the percentage of apoptotic cells (early and late) [3]: 36.46%
- increase of necrotic cell death [4]: 21.33%
- reduction in mitochondrial potential ΔΨ [5]: 9.2%
- reduction in mitochondrial potential ΔΨ [6]: 31.54%
- decrease of cortisol production levels ([7]; drug alone vs. controls): 82.1%
- decrease of cortisol production levels ([7]; in combination with sHDL): not significantly different
- HSD3B2 level [8]: 2.1 fold change
- reduction in MCAs [9]: approximately 50%
- reduction in MCAs [10]: ~25%

Compound: CC(=O)O[C@H]1C(=O)[C@@]2(C)[C@H]([C@H](OC(=O)c3ccccc3)[C@]3(O)C[C@H](OC(=O)[C@H](O)[C@@H](NC(=O)c4ccccc4)c4ccccc4)C(C)=C1C3(C)C)[C@]1(OC(C)=O)CO[C@@H]1C[C@@H]2O [paclitaxel]
- nanoparticle formation and loading in sHDL [11]: Successful nanoparticle formation and loading

Compound: COc1cccc2c1C(=O)c1c(O)c3c(c(O)c1C2=O)C[C@@](O)(C(=O)CO)C[C@@H]3O[C@H]1C[C@H](N)[C@H](O)[C@H](C)O1 [doxorubicin]
- combination index (CI) ([12]; combined with sHDL nanoparticles (25 and 50 μg/ml), Chou-Talalay, 72 h): > 1

Compound: CC(=O)OCC1=C(C)C[C@H]([C@@H](C)C2CC[C@H]3[C@@H]4C[C@H]5O[C@]56[C@@H](OC(C)=O)C=CC(=O)[C@]6(COC(C)=O)[C@H]4CC[C@]23C)OC1=O (stereo partly shown) [WGA-TA, 4, 19, 27-triacetyl withalongolide A]
- metabolic identification in plasma [13]: three deacetylation products

Compound: CC(=O)O[C@@]12CO[C@@H]1C[C@H](O)[C@@]1(C)C(=O)[C@H](O)C3=C(C)[C@@H](OC(=O)[C@H](O)[C@@H](NC(=O)OC(C)(C)C)c4ccccc4)C[C@@](O)([C@@H](OC(=O)c4ccccc4)[C@H]21)C3(C)C [docetaxel]
- nanoparticle formation and loading in sHDL [11]: Successful nanoparticle formation and loading

Compound: N.N.[Cl][Pt][Cl] [cisplatin]
- increase in the percentage of apoptotic cells (early and late) [3]: 6.16%
- increase of necrotic cell death [4]: 14.71%
- reduction in mitochondrial potential ΔΨ [5]: 13.09%
- reduction in mitochondrial potential ΔΨ [6]: 6.5%
- decrease of cortisol production levels ([7]; drug alone vs. controls): 8.39%
- decrease of cortisol production levels ([7]; in combination with sHDL): 82%
- HSD3B2 level [8]: 0.1 fold change
- reduction in MCAs [9]: Approximately 20%
- reduction in MCAs [10]: approximately 50%

Compound: CC[C@@]1(O)C(=O)OCc2c1cc1n(c2=O)Cc2cc3cc(O)ccc3nc2-1 [10-hydroxy camptothecin]
- nanoparticle formation and loading in sHDL [11]: Successful nanoparticle formation and loading

Compound: Ac-PVLDEFREKLNEELEALKQKLK-NH2 [consensus 22-mer]
- LCAT activation as compared with native ApoA-I [14]: 10%

Compound: Clc1ccc(C(c2ccccc2Cl)C(Cl)Cl)cc1 (stereo not shown) [mitotane]
- IC50 value ([12]; SW13 cells compared to NCI-H295R cells): higher IC50 value
- higher reduction in viability, combination compared to single drug alone [1]: 39.1%
- higher reduction in viability, combination compared to single drug alone [2]: 22.3%
- increase in the percentage of apoptotic cells (early and late) [3]: 36.01%
- increase of apoptotic cell death [4]: 11.9%
- reduction in mitochondrial potential ΔΨ [5]: 14.49%
- reduction in mitochondrial potential ΔΨ [6]: 19.8%
- decrease of cortisol production levels ([7]; drug alone vs. controls): 84.7%
- decrease of cortisol production levels ([7]; in combination with sHDL): not significantly different
- HSD3B2 level [8]: 0.2 fold change
- reduction in MCAs [9]: ~30%
- reduction in MCAs [10]: approximately 50%
- improvement in survival rate [15]: 14-50 months
- initial response rates [15]: 20-30%

Compound: pVLELFENLLERLLDALQKKLK ([dP]VLELFENLLERLLDALQKKLK) [SEQ ID NO:3, ApoA-I agonist peptide with D-Pro at X1]
- LCAT activation as compared with native ApoA-I [14]: 111%

Compound: PVLELFENLLERLLDALQKKLK (listed as Homo sapiens) [SEQ ID NO:2, ApoA-I agonist peptide]
- LCAT activation as compared with native ApoA-I [14]: 86%

Compound: O=NN(CCCl)C(=O)NC1CCCCC1 [CCNU, lomustine]
- nanoparticle formation and loading in sHDL [11]: Successful nanoparticle formation and loading
